In patent US7998993B2, “TRPV1 antagonists” (Abbott Laboratories, priority 2007, dated 2011):
Like-named read-outs stand apart in the source and are kept apart here.

How the values were obtained:
[1] = Plasma and brain concentrations in rats after an oral dose; format: in vivo; conditions: rat, fasted male Sprague-Dawley rats, two hours after dosing; for Kp at 2 h: brain/plasma
Protocol: The compounds were prepared as a solution in a 10% DMSO/poly(ethylene glycol)-400 (v/v). Blood and brain samples were obtained from each animal two hours after dosing.
Rat brain tissue was homogenized with two parts water (by weight). Test compound was selectively extracted from plasma and brain homogenate using liquid-liquid extraction with tert-butylmethylether. The compounds of interest were separated from co-extracted contaminants on a 50×3 mm, Luna CN column (Phenomenex), with an acetonitrile:0.1% aqueous trifluoroacetic acid mobile phase at a flow rate of 0.35 ml/min. Plasma and tissue concentrations were determined by HPLC-MS/MS on an API2000 with Turbo Ion Spray interface, with MRM detection in the positive ionization mode. To calibrate compound concentration, a separate portion of each tissue sample was spiked with a known quantity of test compound and analyzed simultaneously with the samples.

human TRPV1 receptor = biological target: T1, human TRPV1 receptor (Homo sapiens, UniProt Q8NER1); assay: Ca2+ influx assay (FLIPR, Fluo-4 AM) with capsaicin challenge in 1321N1 cells expressing recombinant TRPV1; format: cell-based; conditions: inhibition of 0.05 μM capsaicin response, hTRPV1 in 1321N1 human astrocytoma cells
T1 construct: expressed in transfected cells
Protocol: Dulbecco's modified Eagle medium (D-MEM) (with 4.5 mg/mL glucose) and fetal bovine serum were obtained from Hyclone Laboratories, Inc. (Logan, Utah). Dulbecco's phosphate-buffered saline (D-PBS) (with 1 mg/mL glucose and 3.6 mg/l Na pyruvate, without phenol red), L-glutamine, hygromycin B, and Lipofectamine® were obtained from Life Technologies (Grand Island, N.Y.). G418 sulfate was obtained from Calbiochem-Novabiochem Corp. (San Diego, Calif.). Capsaicin (8-methyl-N-vanillyl-6-nonenamide) was obtained from Sigma-Aldrich, Co. (St. Louis, Mo.). Fluo-4 AM (N-[4-[6-[(acetyloxy)methoxy]-2,7-difluoro-3-oxo-3H-xanthen-9-yl]-2-[2-[2-[bis[2-[(acetyloxy)methoxy]-2-oxyethyl]amino]-5-methy lphenoxy]ethoxy]phenyl]-N-[2-[(acetyloxy)methoxy]-2-oxyethyl]-glycine, (acetyloxy)methyl ester) was purchased from Molecular Probes (Eugene, Oreg.).
The cDNAs for the human TRPV1 receptor were isolated by reverse transcriptase-polymerase chain reaction (RT-PCR) from human small intestine poly A+RNA supplied by Clontech (Palo Alto, Calif.) using primers designed surrounding the initiation and termination codons identical to the published sequences (Hayes et al. Pain Vol. 88 pages 205-215, 2000). The resulting cDNA PCR products were subcloned into pCIneo mammalian expression vector (Promega) and fully sequenced using fluorescent dye-terminator reagents (Prism, Perkin-Elmer Applied Biosystems Division) and a Perkin-Elmer Applied Biosystems Model 373 DNA sequencer or Model 310 genetic analyzer. Expression plasmids encoding the hTRPV1 cDNA were transfected individually into 1321N1 human astrocytoma cells using Lipofectamine®. Forty-eight hours after transfection, the neomycin-resistant cells were selected with growth medium containing 800 μg/mL Geneticin (Gibco BRL). Surviving individual colonies were isolated and screened for TRPV1 receptor activity. Cells expressing recombinant homomeric TRPV1 receptors were maintained at 37° C. in D-MEM containing 4 mM L-glutamine, 300 μg/mL G418 (Cal-biochem) and 10% fetal bovine serum under a humidified 5% CO2 atmosphere.
The functional activity of compounds at the TRPV1 receptor was determined with a Ca^2+ influx assay and measurement of intracellular Ca^2+ levels ([Ca^2+]i). All compounds were tested over an 11-point half-log concentration range. Compound solutions were prepared in D-PBS (4× final concentration), and diluted serially across 96-well v-bottom tissue culture plates using a Biomek 2000 robotic automation workstation (Beckman-Coulter, Inc., Fullerton, Calif.). A 0.2 μM solution of the TRPV1 agonist capsaicin was also prepared in D-PBS. The fluorescent Ca^2+ chelating dye Fluo-4 AM was used as an indicator of the relative levels of [Ca^2+]i in a 96-well format using a Fluorescence Imaging Plate Reader (FLIPR)(Molecular Devices, Sunnyvale, Calif.). Cells were grown to confluency in 96-well black-walled tissue culture plates. Then, prior to the assay, the cells were loaded with 100 μL per well of Fluo-4 AM (2 μM, in D-PBS) for 1-2 hours at 23° C. Washing of the cells was performed to remove extracellular Fluo-4 AM (2×1 mL D-PBS per well), and afterward, the cells were placed in the reading chamber of the FLIPR instrument. 50 μL of the compound solutions were added to the cells at the 10 second time mark of the experimental run. Then, after a 3-minute time delay, 50 μL of the capsaicin solution was added at the, 190 seconds time mark (0.05 μM final concentration)([…]) to challenge the TRPV1 receptor. Time length of the experimental run was 240 seconds. Fluorescence readings were made at 1 to 5 second intervals over the course of the experimental run. The peak increase in relative fluorescence units (minus baseline) was calculated from the 190 seconds time mark to the end of the experimental run, and expressed as a percentage of the 0.05 μM capsaicin (control) response.

[2] = brain, 30 μmol/kg oral, read-out: [Brain]
[3] = plasma, 30 μmol/kg oral, read-out: [Plasma]
[4] = brain, 10 μmol/kg PO, read-out: [Brain]
[5] = plasma, 10 μmol/kg PO, read-out: [Plasma]

T1 sequence (Q8NER1 whole entry): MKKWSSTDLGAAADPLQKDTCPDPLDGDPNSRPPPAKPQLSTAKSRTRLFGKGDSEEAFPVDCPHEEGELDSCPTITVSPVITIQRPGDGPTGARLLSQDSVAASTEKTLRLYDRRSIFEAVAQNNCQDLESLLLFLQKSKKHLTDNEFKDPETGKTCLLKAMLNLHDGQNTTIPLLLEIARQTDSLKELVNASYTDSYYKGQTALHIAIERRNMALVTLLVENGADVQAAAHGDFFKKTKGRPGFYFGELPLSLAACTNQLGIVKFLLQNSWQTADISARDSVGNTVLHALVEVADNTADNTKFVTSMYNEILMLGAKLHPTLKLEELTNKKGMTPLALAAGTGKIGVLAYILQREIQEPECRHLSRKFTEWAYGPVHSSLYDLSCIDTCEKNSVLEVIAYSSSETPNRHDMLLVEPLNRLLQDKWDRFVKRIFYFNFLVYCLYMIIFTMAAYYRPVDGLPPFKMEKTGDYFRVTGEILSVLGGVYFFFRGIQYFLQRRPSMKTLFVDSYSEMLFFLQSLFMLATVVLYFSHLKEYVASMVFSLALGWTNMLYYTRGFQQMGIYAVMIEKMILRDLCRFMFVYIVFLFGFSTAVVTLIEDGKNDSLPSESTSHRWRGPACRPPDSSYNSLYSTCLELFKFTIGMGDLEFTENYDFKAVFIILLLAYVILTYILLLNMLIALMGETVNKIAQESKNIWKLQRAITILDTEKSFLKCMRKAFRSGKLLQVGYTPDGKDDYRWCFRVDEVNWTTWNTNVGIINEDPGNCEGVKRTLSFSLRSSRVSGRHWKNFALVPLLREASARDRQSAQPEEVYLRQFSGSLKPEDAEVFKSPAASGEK

SMILES	Kp at 2 h ([1]; 30 μmol/kg oral)	concentration at 2 h [1, 2] [ng/g]	concentration at 2 h [1, 3] [ng/mL]	IC50 (human TRPV1 receptor) [nM]	Kp at 2 h ([1]; 10 μmol/kg PO)	concentration at 2 h [1, 4] [ng/g]	concentration at 2 h [1, 5] [ng/mL]
Cc1nc(Nc2cccc3c2CC(O)CC3)oc1-c1ccc(C(F)(F)F)cc1F (stereo not drawn) [Compound 5, 8-({5-[2-fluoro-4-(trifluoromethyl)phenyl]-4-methyl-1,3-oxazol-2-yl}amino)-1,2,3,4-tetrahydronaphthalen-2-ol]	3	660	210	43	–	–	–
Cc1nc(Nc2cccc3c2CC(O)CC3)oc1-c1ccc(C(F)(F)F)c(F)c1F (stereo not drawn) [Compound 6, 8-({5-[2,3-difluoro-4-(trifluoromethyl)phenyl]-4-methyl-1,3-oxazol-2-yl}amino)-1,2,3,4-tetrahydronaphthalen-2-ol]	1.7	230	130	62	–	–	–
Cc1nc(Nc2cccc3c2CC(O)CC3)oc1-c1ccc(OC(F)(F)F)cc1 (stereo not drawn) [Compound 9, 8-({4-methyl-5-[4-(trifluoromethoxy)phenyl]-1,3-oxazol-2-yl}amino)-1,2,3,4-tetrahydronaphthalen-2-ol]	4	2100	510	184	–	–	–
Cc1nc(Nc2cccc3c2CC(O)CC3)oc1-c1ccc(C(F)(F)F)cc1 (stereo not drawn) [Compound 12, 8-({4-methyl-5-[4-(trifluoromethyl)phenyl]-1,3-oxazol-2-yl}amino)-1,2,3,4-tetrahydronaphthalen-2-ol]	6.3	3300	490	–	–	–	–
Cc1nc(Nc2cccc3c2CC(O)CC3)oc1-c1ccc(Cl)cc1 (stereo not drawn) [Compound 13, 8-{[5-(4-chlorophenyl)-4-methyl-1,3-oxazol-2-yl]amino}-1,2,3,4-tetrahydronaphthalen-2-ol]	5.6	600	93	108	–	–	–
C=C(C)[C@H]1CC=C(c2oc(Nc3cccc4c3CC(O)CC4)nc2C)CC1 (stereo partly drawn) [Compound 32, 8-({5-[(4R)-4-isopropenylcyclohex-1-en-1-yl]-4-methyl-1,3-oxazol-2-yl}amino)-1,2,3,4-tetrahydronaphthalen-2-ol]	–	–	–	395	1.9	15	9
Cc1nc(Nc2cccc3c2CC(O)CC3)oc1-c1ccc(S(F)(F)(F)(F)F)cc1 (stereo not drawn) [Compound 40, 8-({4-methyl-5-[4-(pentafluoro-lambda˜6˜sulfanyl)phenyl]-1,3-oxazol-2-yl}amino)-1,2,3,4-tetrahydronaphthalen-2-ol]	–	–	–	52	1.4	160	110
Cc1nc(Nc2cccc3c2CC(O)CO3)oc1-c1ccc(C(F)(F)F)cc1 (stereo not drawn) [Compound 51, 5-({4-methyl-5-[4-(trifluoromethyl)phenyl]-1,3-oxazol-2-yl}amino)chroman-3-ol]	–	–	–	618	2.7	800	300
O[C@@H]1CCc2cccc(Nc3nc(C(F)F)c(-c4ccc(C(F)(F)F)cc4)o3)c2C1 [Compound 53, (2R)-8-({4-(difluoromethyl)-5-[4-(trifluoromethyl)phenyl]-1,3-oxazol-2-yl}amino)-1,2,3,4-tetrahydronaphthalen-2-ol]	–	–	–	38	3.4	930	270

Results, then the compound that gave them:

Kp at 2 h ([1]; 30 μmol/kg oral)	concentration at 2 h [1, 2] [ng/g]	concentration at 2 h [1, 3] [ng/mL]	IC50 (human TRPV1 receptor) [nM]	Kp at 2 h ([1]; 10 μmol/kg PO)	concentration at 2 h [1, 4] [ng/g]	concentration at 2 h [1, 5] [ng/mL]	SMILES
1.3	310	250	36	–	–	–	Cc1nc(Nc2cccc3c2CC(O)CC3)oc1-c1ccc(C#N)cc1 (stereo not drawn) [Compound 15, 4-{2-[(7-hydroxy-5,6,7,8-tetrahydronaphthalen-1-yl)amino]-4-methyl-1,3-oxazol-5-yl}benzonitrile]
–	–	–	703	1.3	50	40	Cc1nc(Nc2cccc3c2CC(O)CC3)oc1-c1ccc(C(F)(F)F)o1 (stereo not drawn) [Compound 31, 8-({4-methyl-5-[5-(trifluoromethyl)-2-furyl]-1,3-oxazol-2-yl}amino)-1,2,3,4-tetrahydronaphthalen-2-ol]
–	–	–	74	2.8	410	140	CCc1nc(Nc2cccc3c2C[C@H](O)CC3)oc1-c1ccc(C(F)(F)F)cc1 [Compound 43, (2R)-8-({4-ethyl-5-[4-(trifluoromethyl)phenyl]-1,3-oxazol-2-yl}amino)-1,2,3,4-tetrahydronaphthalen-2-ol]
0	0	0	22	–	–	–	OC1CCc2cccc(Nc3ncc(-c4ccc(C(F)(F)F)cc4)o3)c2C1 (stereo not drawn) [Compound A, 8-({5-[4-(trifluoromethyl)phenyl]-1,3-oxazol-2-yl}amino)-1,2,3,4-tetrahydronaphthalen-2-ol, reference compound]
